Structures can show the parent of a compound that is named as a salt. Where two headings read alike, the source gives them in different places.
What was measured:
Nematospiroides dubius = experiment: Anthelmintic efficacy against N. dubius in mice, single oral dose; type: in vivo, Nematospiroides dubius (in albino female mice); conditions: for inhibition in vivo at 20 mg/kg: single oral dose 20 mg./Kg.; for inhibition in vivo at 40 mg/kg: single oral dose 40 mg./Kg.; for inhibition in vivo at 4 mg/kg: single oral dose 4.0 mg./Kg.; for inhibition in vivo at 0.625 mg/kg: single oral dose 0.625 mg./Kg., adjusted to molar equivalents of tetramisole free base
Experimental: Albino female mice are each inoculated with about 20 infectious larvae of Nematospiroides dubius. This nematode is a representative of the economical important trichostrongylis worms of ruminants and other hosts, and of nematodes in general. Twenty-two days after inoculation, groups of four randomly selected mice containing adult N. dubius are given single oral doses of test compounds dissolved or suspended in 0.4 ml. of water per 20 gram mouse. At 26 or 27 days after inoculation, treated mice and in each test four randomly selected groups of untreated mice are necropsied. The number of worms in the small intestine of each mouse are determined by microscopic examination. Average worm numbers for each treated group and for the untreated controls are computed and the percent efficacy determined by the customary formula:
(Average Worms in Control - Average Worms in Treated)/(Average Worms in Control) X 100.

in vivo = conditions: for Approx. LD50 /ED50: chemotherapeutic index, mouse oral, N. dubius
Text: Data on the acute oral toxicity to mice of various single oral doses of the above compounds and several analogs were obtained by conventional procedures, (Table IX hereinafter).

[1] = Heligmosomoides polygyrus, po, as Base, single oral dose, mice, > indicates inactive at dose shown, read-out: Approx. ED50
[2] = Heligmosomoides polygyrus, po, mouse oral, Table IX, read-out: Approx. ED50 vs. N. dubius
[3] = Heligmosomoides polygyrus, po, single oral dose 5.0 mg./Kg., molar-adjusted, read-out: Percent Nematospiroides Activity
[4] = Heligmosomoides polygyrus, po, single oral dose 10 mg./Kg., molar-adjusted, read-out: Percent Nematospiroides Activity
[5] = Heligmosomoides polygyrus, po, molar-adjusted, read-out: Percent Nematospiroides Activity
[6] = mouse, in vivo, po, Approx. LD50, mouse oral, Table IX
[7] = mouse, in vivo, po, LD50, mice, adjusted to molar equivalents of tetramisole free base
[8] = single oral dose 50 Mg./Kg., mice
[9] = single oral dose 100 Mg./Kg., mice
[10] = single oral dose 200 Mg./Kg., mice
[11] = Heligmosomoides polygyrus, po, single oral dose 1.25 mg./Kg., molar-adjusted, read-out: Percent Nematospiroides Activity
[12] = Heligmosomoides polygyrus, po, single oral dose 2.0 mg./Kg., molar-adjusted, read-out: Percent Nematospiroides Activity
[13] = single oral dose 60 Mg./Kg., mice
[14] = single oral dose 80 Mg./Kg., mice
[15] = single oral dose 120 Mg./Kg., mice
[16] = Heligmosomoides polygyrus, po, read-out: Percent Nematospiroides Activity

Compound	ED50 (Nematospiroides dubius; [2])	inhibition in vivo at 5 mg/kg (Nematospiroides dubius; [3])	inhibition in vivo at 10 mg/kg (Nematospiroides dubius; [4])	LD50 (in vivo; [6])	LD50 (in vivo; [7])	inhibition in vivo at 1.25 mg/kg (Nematospiroides dubius; [11])	inhibition in vivo at 2 mg/kg (Nematospiroides dubius; [12])	other results
CC(C)(C)C(=O)Nc1cccc(C2CN3CCSC3=N2)c1 (racemic) [m-NH--CO--C(CH3)3 dl]	3 mg/kg	75%	88%	100 mg/kg	~100 mg/kg			ED50 (Nematospiroides dubius; [1]): 3 mg/kg; inhibition in vivo at 20 mg/kg (Nematospiroides dubius; [5]): 100%; Approx. LD50 /ED50 (in vivo; Table IX): 33; Dead/Total (in vivo; [8]): 0/6; Dead/Total (in vivo; [9]): 2/6; Dead/Total (in vivo; [10]): 5/6
O=C(Nc1cccc(C2CN3CCSC3=N2)c1)c1ccccc1 (racemic) [m-NH-CO dl]	1 mg/kg	100%	100%	60 mg/kg	~60 mg/kg	67%	94%	ED50 (Nematospiroides dubius; [1]): 1 mg/kg; inhibition in vivo at 20 mg/kg (Nematospiroides dubius; [5]): 100%; Approx. LD50 /ED50 (in vivo; Table IX): 60; Dead/Total (in vivo; single oral dose 40 Mg./Kg., mice): 0/6; Dead/Total (in vivo; [13]): 3/6; Dead/Total (in vivo; [14]): 4/6; Dead/Total (in vivo; [15]): 5/6
CCC(CC)C(=O)Nc1cccc(C2CN3CCSC3=N2)c1 (racemic) [m-NH-CO-CH(C2 H5)2 dl]	7.5 mg/kg		85%	160 mg/kg	~160 mg/kg			ED50 (Nematospiroides dubius; [1]): 7.5 mg/kg; inhibition in vivo at 20 mg/kg (Nematospiroides dubius; [5]): 99%; inhibition in vivo at 40 mg/kg (Nematospiroides dubius; [5]): 100%; Approx. LD50 /ED50 (in vivo; Table IX): 21; Dead/Total (in vivo; [14]): 0/6; Dead/Total (in vivo; [15]): 0/6; Dead/Total (in vivo; single oral dose 180 Mg./Kg., mice): 3/6
COC(=O)Nc1cccc(C2CN3CCSC3=N2)c1 (racemic) [m-NH-CO-OCH3 dl, dl-m-(2,3,5,6-tetrahydroimidazo[2,1-b]thiazol-6-yl)carbanilic acid methyl ester, hydrochloride]	15 mg/kg		25%	150 mg/kg	~125 mg/kg			ED50 (Nematospiroides dubius; [1]): 15 mg/kg; inhibition in vivo at 20 mg/kg (Nematospiroides dubius; [5]): 96%; inhibition in vivo at 40 mg/kg (Nematospiroides dubius; [5]): 100%; Approx. LD50 /ED50 (in vivo; Table IX): 10; Dead/Total (in vivo; [8]): 0/5; Dead/Total (in vivo; [9]): 0/5; Dead/Total (in vivo; single oral dose 150 Mg./Kg., mice): 3/5; Dead/Total (in vivo; [10]): 5/5
O=CNc1cccc(C2CN3C=CSC3=N2)c1 (stereo not drawn) [5,6-dihydro HNCHO]			100%		~150 mg/kg			inhibition in vivo at 4 mg/kg (Nematospiroides dubius; [5]): 64%
Cl.Cl.Nc1cccc(C2CN3C=CSC3=N2)c1 (stereo not drawn) [5,6-dihydro m-NH2 dl, 6-(m-Aminophenyl)-5,6-dihydroimidazo[2,1-b]thiazole dihydrochloride]	1.5 mg/kg	96%	100%	10 mg/kg	~80 mg/kg		53%	ED50 (Nematospiroides dubius; [1]): 1.5 mg/kg
O=C(CCl)Nc1cccc(C2CN3CCSC3=N2)c1 (stereo not drawn) [H--N--CO--CH2 Cl]		100%			50 to 60 mg/kg	84%		inhibition in vivo at 40 mg/kg (Nematospiroides dubius; [5]): 100%; inhibition in vivo at 50 mg/kg (Nematospiroides dubius; Heligmosomoides polygyrus, po, single oral dose 50 mg./Kg., molar-adjusted, read-out: Percent Nematospiroides Activity): 100%
CC(=O)Nc1cccc(C2CN3CCSC3=N2)c1 (stereo not drawn) [HN--CO--CH3]			100%		40 to 60 mg/kg			inhibition in vivo at 4 mg/kg (Nematospiroides dubius; [5]): 66%
CCCCCCC(=O)Nc1cccc(C2CN3CCSC3=N2)c1 (stereo not drawn) [HNCO(CH2)5 CH3]								Percent Nematospiroides Activity (Nematospiroides dubius; single oral dose 1.25 mg./Kg., molar-adjusted): 53%; Percent Nematospiroides Activity (Nematospiroides dubius; single oral dose 2.0 mg./Kg., molar-adjusted): 99%; Percent Nematospiroides Activity (Nematospiroides dubius; single oral dose 5.0 mg./Kg., molar-adjusted): 100%; Percent Nematospiroides Activity (Nematospiroides dubius; single oral dose 10 mg./Kg., molar-adjusted): 100%; LD50 (in vivo; mice, adjusted to molar equivalents of tetramisole free base): 20 to 25 mg/kg
CC(C)(C)CC(=O)Nc1cccc(C2CN3CCSC3=N2)c1 (stereo not drawn) [HNCOCH2 C(CH3)2]		59%	98%		80 to 100 mg/kg			
Nc1ccc([N+](=O)[O-])c(C2CN3CCSC3=N2)c1 (stereo not drawn) [R1 =H R4 =NO2]	2 mg/kg		100%	120 mg/kg	120 to 140 mg/kg		43%	ED50 (Nematospiroides dubius; Heligmosomoides polygyrus, po, continuation of Table X (R1/R4 disubstituted), read-out: ED50): 2 mg/kg; inhibition in vivo at 4 mg/kg (Nematospiroides dubius; [5]): 89%; Approx. LD50 /ED50 (in vivo; Table IX): 60; Dead/Total (in vivo; [13]): 0/6; Dead/Total (in vivo; [15]): 2/6; Dead/Total (in vivo; single oral dose 240 Mg./Kg., mice): 6/6
O=C(C=Cc1ccccc1)Nc1cccc(C2CN3CCSC3=N2)c1 (stereo not drawn) [Table XII b1827]		100%	100%		~90 mg/kg	60%	67%	
O=C(Nc1cccc(C2CN3CCSC3=N2)c1)c1ccccc1 (stereo not drawn) [Table XII b1839]					50 to 60 mg/kg	94%	100%	
COc1ccc(C(=O)Nc2cccc(C3CN4CCSC4=N3)c2)cc1 (stereo not drawn) [Table XII b1843]		100%			60 to 80 mg/kg	58%	95%	inhibition in vivo at 0.625 mg/kg (Nematospiroides dubius; [16]): 56%
O=C(Nc1cccc(C2CN3CCSC3=N2)c1)c1ccc(Cl)cc1 (stereo not drawn) [Table XII b1847]		100%			~80 mg/kg	63%	90%	inhibition in vivo at 0.625 mg/kg (Nematospiroides dubius; [16]): 40%
O=C(Nc1cccc(C2CN3CCSC3=N2)c1)c1cccc(Cl)c1 (stereo not drawn) [Table XII b1851]		97%			80 to 100 mg/kg	52%	95%	inhibition in vivo at 0.625 mg/kg (Nematospiroides dubius; [16]): 40%
O=C(Nc1cccc(C2CN3CCSC3=N2)c1)c1ccc(Cl)c(Cl)c1 (stereo not drawn) [Table XII b1854]		95%			80 to 100 mg/kg	52%	92%	inhibition in vivo at 0.625 mg/kg (Nematospiroides dubius; [16]): 58%
O=C(Nc1cccc(C2CN3CCSC3=N2)c1)c1ccc([N+](=O)[O-])cc1 (stereo not drawn) [Table XII b1857]		100%	100%		60 to 90 mg/kg	65%	78%	
O=C(Nc1cccc(C2CN3CCSC3=N2)c1)c1ccco1 (stereo not drawn) [Table XII b1864]		85%	99%		80 to 100 mg/kg		37%	inhibition in vivo at 20 mg/kg (Nematospiroides dubius; [5]): 100%

From patent publication US3989835A, “Method of using 6-substituted amino phenyl-2,3,5,6-tetra-hydro[2,1-b]thiazoles for controlling gastrointestinal nematodes” (American Cyanamid Company, priority 1974, dated 1976)
